Consider 8 molecules from publication PMC6406525, “A Biophysical Approach to the Identification of Novel ApoE Chemical Probes” (Biomolecules, 2019).

Common to all, as to type: binding
The target in assay [1] is T1, ApoE4 (Homo sapiens, UniProt P02649, C130R).
T1 construct: gene APOE; full-length mature ApoE4, codon-optimized gene in pET17b; His6-thioredoxin tag removed by HRV 3C protease; E. coli Rosetta2(DE3)
Nature of the assay: isothermal titration calorimetry (protein injected into compound).

Assay [2] concerns the target T1, ApoE4. Briefly: microscale thermophoresis (Red-NHS labelled ApoE4, initial fluorescence). An excerpt:
microscale thermophoresis (Red-NHS labelled ApoE4, initial fluorescence) on ApoE4

Another assay concerns the target T2, ApoE3 (Homo sapiens, UniProt P02649).
T2 construct: gene APOE; His6-thioredoxin tag removed by HRV 3C protease; E. coli Rosetta2(DE3)
Nature of the assay: isothermal titration calorimetry (protein injected into compound). The source says: isothermal titration calorimetry (protein injected into compound) on ApoE3

The target in a further assay is T3, ApoE2 (Homo sapiens, UniProt P02649, R176C).
T3 construct: gene APOE; His6-thioredoxin tag removed by HRV 3C protease; E. coli Rosetta2(DE3)
The description is as above. The source says: isothermal titration calorimetry (protein injected into compound) on ApoE2

T2 sequence (P02649 19-317): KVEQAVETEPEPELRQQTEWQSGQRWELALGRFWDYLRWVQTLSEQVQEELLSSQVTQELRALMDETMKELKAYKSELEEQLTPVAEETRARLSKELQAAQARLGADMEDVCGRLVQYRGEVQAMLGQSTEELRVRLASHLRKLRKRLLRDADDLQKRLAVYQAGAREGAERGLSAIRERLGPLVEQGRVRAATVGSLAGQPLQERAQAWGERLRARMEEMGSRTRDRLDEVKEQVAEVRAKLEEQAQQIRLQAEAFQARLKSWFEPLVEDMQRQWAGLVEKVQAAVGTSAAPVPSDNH
T1 sequence (P02649 19-317 C130R): as the sequence (P02649 19-317) above, with C112R counted along it
T3 sequence (P02649 19-317 R176C): as the sequence (P02649 19-317) above, with R158C counted along it

As for `Cc1ccc(C(=O)Nc2ccc(S(=O)(=O)O)c3cc(S(=O)(=O)O)cc(S(=O)(=O)O)c23)cc1NC(=O)c1cccc(NC(=O)Nc2cccc(C(=O)Nc3cc(C(=O)Nc4ccc(S(=O)(=O)O)c5cc(S(=O)(=O)O)cc(S(=O)(=O)O)c45)ccc3C)c2)c1` [Suramin], the Kd at ApoE4 [1] (read-out: binding affinity) came to 3 ± 0.4 µM.
For the molecule `CN(C)CCOc1ccc(/C(=C(/CCCl)c2ccccc2)c2ccccc2)cc1` [Toremifene], the Kd at ApoE4 [2] turned out to be 44 ± 6 µM.
As for `Cc1ccc(Cl)c(Nc2ccccc2C(=O)O)c1Cl` [Meclofenamic acid], the Kd on ApoE4 [1] (read-out: ApoE4) came to 45 ± 13 µM; on ApoE3 it was 47 ± 9 µM; on ApoE2, 47 ± 32 µM.
On to `O=C(O)c1ccc2nc(-c3cc(Cl)cc(Cl)c3)oc2c1` [Tafamidis], for which the figures for the Kd on ApoE4 [1] (read-out: ApoE4), at ApoE3 and on ApoE2 were 8 ± 2 µM, 8 ± 1 µM and 6 ± 2 µM, respectively.
On to `O=C(O)c1cc2ccccc2c(Cc2c(O)c(C(=O)O)cc3ccccc23)c1O` [Pamoic acid], for which the values for the Kd on ApoE4 [1] (read-out: ApoE4), on ApoE3 and at ApoE2 were 38 ± 4 µM, 119 ± 50 µM and 55 ± 14 µM, respectively.
`CCN(CC)CCOc1ccc(C(=C(Cl)c2ccccc2)c2ccccc2)cc1` [Clomifene]: the Kd at ApoE4 [1] (read-out: ApoE4) turned out to be 15 ± 10 µM; on ApoE3 it was 24 ± 9 µM; on ApoE2, 67 ± 36 µM.
On the same counts, the results for `N[C@@H](Cc1cc(I)c(Oc2cc(I)c(O)c(I)c2)c(I)c1)C(=O)O` [L-Thyroxine] are 18 ± 12 µM, 20 ± 3 µM and 33 ± 10 µM.
On to `CC/C(=C(\c1ccccc1)c1ccc(OCCN(C)C)cc1)c1ccccc1` [Tamoxifen], for which the Kd on ApoE4 [2] was determined as 67 ± 19 µM.
